# Several values for one entry are separate records, joined by “and”; a condition that tells them apart may be missing. Equal entries are not always repeated. Where two headings read alike, the source gives them in different places.
# Legend:
# S. pyogenes = assay: In vitro activity (geometric mean MIC, serial dilution); type: cell-based; settings: Streptococcus pyogenes; 10 strains; Mueller-Hinton agar, inoculum 10^4 dilution; MIC cutoff 200 mcg./ml.
# S. aureus Smith = assay: In vivo activity (Mice, sc); settings: Staphylococcus aureus, several determinations listed, read-out: PD50
# Description: (§1) |In vivo Activity of BB-[…] and Related Compounds (Mice, sc) | (PD50 (mgm./kg.)
# E. coli Juhl = assay: In vivo activity (Mice, sc); settings: several determinations listed; for ED50: Escherichia coli, read-out: PD50
# Description: as §1
# Proteus (indole +) = assay: In vitro activity (geometric mean MIC, serial dilution); type: cell-based; settings: read-out: Geometric Mean MIC
# [1] = tested on: S. aureus penicillinase+); assay: as above; type: cell-based; settings: Staphylococcus aureus; 13 strains; Mueller-Hinton agar, inoculum 10^4 dilution; MIC cutoff 200 mcg./ml.; read-out: Geometric Mean MIC
# [2] = tested on: Enterobacter (Cephalosporinase +); assay: as above; type: cell-based; settings: 7 strains, Mueller-Hinton agar, inoculum 10^4 dilution, MIC cutoff 200 mcg./ml.
# S. marcescens = assay: as above; type: cell-based; settings: Serratia marcescens, read-out: Geometric Mean MIC
# Klebsiella sp. = assay: as above; type: cell-based; settings: 12 strains, Mueller-Hinton agar, inoculum 10^4 dilution, MIC cutoff 200 mcg./ml., read-out: Geometric Mean MIC
# E. coli (sensitive) = assay: as above; type: cell-based; settings: Escherichia coli, read-out: Geometric Mean MIC
# Proteus (indole-) = assay: as above; type: cell-based; settings: read-out: Geometric Mean MIC
# [3] = tested on: S. aureus (Methicillin-R); assay: as above; type: cell-based; settings: Staphylococcus aureus; 15 strains; Mueller-Hinton agar, inoculum 10^4 dilution; MIC cutoff 200 mcg./ml.
# [4] = tested on: E. coli (Penicillinase +); assay: as above; type: cell-based; settings: Escherichia coli, read-out: Geometric Mean MIC
# [5] = tested on: Proteus (indole +, cephalosporinase +); assay: as above; type: cell-based; settings: read-out: Geometric Mean MIC
# S. aureus (sensitive) = assay: as above; type: cell-based; settings: Staphylococcus aureus, read-out: Geometric Mean MIC
# D. pneumoniae = assay: as above; type: cell-based; settings: Streptococcus pneumoniae; 9 strains; Mueller-Hinton agar, inoculum 10^4 dilution; MIC cutoff 200 mcg./ml.
# Enterobacter (sensitive) = assay: as above; type: cell-based; settings: 3 strains, Mueller-Hinton agar, inoculum 10^4 dilution, MIC cutoff 200 mcg./ml., read-out: Geometric Mean MIC
# Providencia sp. = assay: as above; type: cell-based; settings: 5 strains, Mueller-Hinton agar, inoculum 10^4 dilution, MIC cutoff 200 mcg./ml., read-out: Geometric Mean MIC
# Sal. enteritidis = assay: In vitro antibacterial activity (Steers' agar dilution MIC); type: cell-based; settings: Salmonella enterica, table 4 (BB-S 525), Sal. enteritidis
# Pr. rettgeri = assay: as above; type: cell-based; settings: Providencia rettgeri, table 4 (BB-S 525); Pr. rettgeri
# Ps. aeruginosa = assay: as above; type: cell-based; settings: table 4 (BB-S 525), Ps. aeruginosa
# St. faecalis = assay: as above; type: cell-based; settings: Enterococcus faecalis, table 4 (BB-S 525); St. faecalis; read-out: MIC
# B. anthracis = assay: microbe, parasite or virus in culture; type: cell-based; settings: Bacillus anthracis, table 4 (BB-S 525); B. anthracis
# Serr. marcescens = assay: In vitro antibacterial activity (Steers' agar dilution MIC); type: cell-based; settings: Serratia marcescens, table 4 (BB-S 525); Serr. marcescens; read-out: MIC
# Enterob. cloacae = assay: as above; type: cell-based; settings: table 4 (BB-S 525); Enterob. cloacae; read-out: MIC
# Shig. flexneri = assay: as above; type: cell-based; settings: Shigella flexneri; table 4 (BB-S 525); Shig. flexneri; read-out: MIC
# Description: (§2) In vitro Antibacterial Activity of BB-S493 Compared with
# (§3) BB-S479 and Cefamandole (Determined by Steers' Agar Dilu-
# (§4) tion Method on Mueller-Hinton Agar Plate)
# (§5) In vitro antibacterial activity of BB-S 525 compared with
# (§6) BB-S 479 and cefamandole (determined by Steers' agar dilution
# (§7) method on Mueller-Hinton agar plate)
# E. coli = assay: as above; type: cell-based; settings: Escherichia coli
# Description: as §2, §3, §4, §5, §6, §7
# S. aureus = assay: as above; type: cell-based; settings: Staphylococcus aureus, table 4 (BB-S 525)
# Description: as §2, §3, §4, §5, §6, §7
# Shig. sonnei = assay: as above; type: cell-based; settings: Shigella sonnei, table 4 (BB-S 525); Shig. sonnei
# Description: as §2, §3, §4, §5, §6, §7
# Kl. pneumoniae = assay: as above; type: cell-based; settings: Klebsiella pneumoniae, table 4 (BB-S 525)
# Description: as §2, §3, §4, §5, §6, §7
# Sal. typhosa = assay: as above; type: cell-based; settings: table 4 (BB-S 525); Sal. typhosa
# Description: as §2, §3, §4, §5, §6, §7
# Pr. morganii = assay: as above; type: cell-based; settings: Morganella morganii, table 4 (BB-S 525), Pr. morganii, read-out: MIC
# Shig. dysenteriae = assay: as above; type: cell-based; settings: Shigella dysenteriae, table 4 (BB-S 525); Shig. dysenteriae
# Pr. vulgaris = assay: as above; type: cell-based; settings: Proteus vulgaris, table 4 (BB-S 525), Pr. vulgaris, read-out: MIC
# Pr. mirabilis = assay: as above; type: cell-based; settings: Proteus mirabilis, table 4 (BB-S 525), Pr. mirabilis, read-out: MIC
smiles,measurement,setting,value
"CNCc1cc(O)ccc1CC(=O)N[C@@H]1C(=O)N2C(C(=O)O)=C(CSc3ccc4nn(CC(=O)O)c(=O)n4n3)CS[C@H]12 [BB-S478, 7-(2-N-Methylaminomethyl-4-hydroxyphenylacetamido)-3-(2-N-carboxymethyl-2,3-dihydro-s-triazolo[4,5-b]pyridazin-3-on-6-ylthiomethyl)-3-cephem-4-carboxylic Acid]",MIC,S. pyogenes,0.04 µg/mL
same,ED50,S. aureus Smith,0.08 mg/kg
same,ED50,E. coli Juhl,0.08 mg/kg
same,MIC,Proteus (indole +),0.3 µg/mL
same,MIC,[1],1 µg/mL
same,MIC,[2],2.6 µg/mL
same,MIC,S. marcescens,40 µg/mL
same,MIC,Klebsiella sp.,0.6 µg/mL
same,MIC,"E. coli (sensitive); 13 strains, Mueller-Hinton agar, inoculum 10^4 dilution, MIC cutoff 200 mcg./ml.",0.2 µg/mL
same,MIC,Proteus (indole-),0.4 µg/mL
same,MIC,[3],50 µg/mL
same,MIC,[4],10 µg/mL
same,MIC,[5],7.3 µg/mL
same,MIC,S. aureus (sensitive),0.4 µg/mL
same,MIC,D. pneumoniae,0.03 µg/mL
same,MIC,Enterobacter (sensitive),0.8 µg/mL
same,MIC,Providencia sp.,4.8 µg/mL
"CNCc1ccccc1CC(=O)N[C@@H]1C(=O)N2C(C(=O)O)=C(CSc3ccc4nn(CCC(=O)O)c(=O)n4n3)CS[C@H]12 [BB-S 525, 7-[o-(N-Methylaminomethyl)phenylacetamido]-3-[2-(2-carboxyethyl)-2,3-dihydro-s-triazolo[4,3-b]pyridazin-3-on-6-ylthiomethyl]-3-cephem-4-carboxylic acid]",MIC,Sal. enteritidis,0.2 µg/mL
same,MIC,Pr. rettgeri,0.8 µg/mL
same,MIC,"Ps. aeruginosa; Pseudomonas aeruginosa, 1st line, read-out: MIC",> 100 µg/mL
same,MIC,Ps. aeruginosa; 2nd line,> 100 µg/mL
same,MIC,St. faecalis,> 100 µg/mL
same,MIC,B. anthracis,0.2 µg/mL
same,MIC,Serr. marcescens,25 µg/mL
same,MIC,Enterob. cloacae,3.1 µg/mL
same,MIC,Shig. flexneri,12.5 µg/mL
same,MIC,"E. coli; ATCC8739, table 4 (BB-S 525), E. coli ATCC 8739",6.3 µg/mL
same,MIC,"E. coli; table 4 (BB-S 525), E. coli BX-1373, read-out: MIC",0.4 µg/mL
same,MIC,"E. coli; table 4 (BB-S 525), E. coli Juhl, read-out: MIC",0.4 µg/mL
same,MIC,"E. coli; table 4 (BB-S 525), E. coli NIHJ, read-out: MIC",0.2 µg/mL
same,MIC,"E. coli; table 4 (BB-S 525), E. coli, strain not given, 1st line, read-out: MIC",0.2 µg/mL
same,MIC,"E. coli; table 4 (BB-S 525), E. coli, strain not given, 2nd line, read-out: MIC",0.2 µg/mL
same,MIC,"E. coli; table 4 (BB-S 525), E. coli, strain not given, 3rd line, read-out: MIC",6.3 µg/mL
same,MIC,S. aureus; S. aureus (strain not given),0.2 µg/mL
same,MIC,S. aureus; S. aureus BX-1633,0.8 µg/mL
same,MIC,S. aureus; S. aureus Smith,0.4 µg/mL
same,MIC,Shig. sonnei,0.1 µg/mL
same,MIC,"Kl. pneumoniae; Kl. pneumoniae, 1st line",1.6 µg/mL
same,MIC,"Kl. pneumoniae; Kl. pneumoniae, 2nd line",0.2 µg/mL
same,MIC,"Kl. pneumoniae; Kl. pneumoniae, 3rd line",0.2 µg/mL
same,MIC,"Kl. pneumoniae; Kl. pnuemoniae, 4th line",0.2 µg/mL
same,MIC,Sal. typhosa,0.2 µg/mL
same,MIC,Pr. morganii; 1st line,> 100 µg/mL
same,MIC,Pr. morganii; 2nd line,0.2 µg/mL
same,MIC,Shig. dysenteriae,0.1 µg/mL
same,MIC,Pr. vulgaris; 1st line,0.2 µg/mL
same,MIC,Pr. vulgaris; 2nd line,3.1 µg/mL
same,MIC,Pr. mirabilis; 1st line,0.4 µg/mL
same,MIC,Pr. mirabilis; 2nd line,0.2 µg/mL
"NCc1ccccc1CC(=O)N[C@@H]1C(=O)N2C(C(=O)O)=C(CSc3nnnn3CC(=O)O)CS[C@H]12 [BL-S786, reference compound]",MIC,S. pyogenes,0.2 µg/mL
same,ED50,E. coli Juhl,0.43 mg/kg
same,PD50,E. coli Juhl,0.55 mgm./kg. and 0.46 mgm./kg. and 0.39 mgm./kg.
same,MIC,Proteus (indole +),0.7 µg/mL
same,MIC,[1],3 µg/mL
same,MIC,[2],7.7 µg/mL
same,MIC,"S. marcescens; 16 strains, Mueller-Hinton agar, inoculum 10^4 dilution, MIC cutoff 200 mcg./ml.",180 µg/mL
same,MIC,Klebsiella sp.,0.8 µg/mL
same,MIC,E. coli (sensitive),0.4 µg/mL
same,MIC,Proteus (indole-),0.9 µg/mL
same,MIC,[3],48 µg/mL
same,MIC,"[4]; 7 strains, Mueller-Hinton agar, inoculum 10^4 dilution, MIC cutoff 200 mcg./ml.",9.3 µg/mL
same,MIC,"[5]; 5 strains, Mueller-Hinton agar, inoculum 10^4 dilution, MIC cutoff 200 mcg./ml.",29 µg/mL
same,MIC,"S. aureus (sensitive); 4 strains, Mueller-Hinton agar, inoculum 10^4 dilution, MIC cutoff 200 mcg./ml.",1.3 µg/mL
same,MIC,D. pneumoniae,0.08 µg/mL
same,MIC,Enterobacter (sensitive),1.3 µg/mL
same,MIC,Providencia sp.,1.4 µg/mL
